One molecule from patent US7388014B2, “Quinazoline derivatives and therapeutic use thereof” (Rexahn Pharmaceuticals, Inc., priority 2004, dated 2008) can be followed below.

Molecules are shown by their SMILES.

One experiment concerns A549. Put plainly: Cell growth inhibition assay (SRB), A549. The following applies: A549 (lung), 96 hours. Type of experiment: cell-based, Human. The source says: (§1) Cancer cells used in this study to determine the effect of quinazoline compounds were obtained from the following sources: Human OVCAR-3 (ovary), MCF-7 (breast, hormone-dependent), Hs 578T (breast), MDA-MB-231 (breast), HeLa (cervix), PC3 (prostate), HepG2 (liver), A549 (lung), Caki-1 (kidney), HT-29 (colon), HCT116 (colon) and PANC-1 (pancreas) from the American Type Culture Collection (ATCC) (Manassas, Va.); U251 (brain) from Riken (Japan); MKN-45 (stomach) from DSMZ (Germany); UMRC2 (kidney) and Lox IMVI (melanoma) from the United States National Cancer Institute (Bethesda, Md.). All cell lines except Hs 578T, MDA-MB-231, HCT116, UMRC2, Caki-1 and PANC-1 were grown in RPMI1640 medium (Invitrogen, Carlsbad, Calif.) supplemented with 10% fetal bovine serum (“FBS”), 1 mM sodium pyruvate, 10 mM HEPES and 100 U/ml penicillin and 100 μg/ml streptomycin (“P/S”). Hs 578T, MDA-MB-231, HCT116, UMRC2, Caki-1 and PANC-1 cells were maintained in Dulbecco's modified Eagle's medium (“DMEM”, Invitrogen) supplemented with 10% FBS, P/S, 10 mM HEPES and 2 mM L-glutamine. All cells were incubated at 37° C. under humidified 5% CO2.
(§2) The growth inhibition of the substituted quinazoline derivative compounds against a variety of human tumor cells was evaluated. The relative importance of particular substituent groups on the compounds was also studied. The substituted quinazoline derivative compounds, prepared as described above, were tested, along with DMSO as a control.
(§3) The growth inhibition assay of various compounds against 15 human tumor cell lines was performed using the Sulforhodamnine B (“SRB”) method (Skehan et al., J. National Cancer Institute, 82: 1107-1112 (1990)). Briefly, exponentially growing tumor cells were seeded into a 96-well plate at a density of 2-3×10^3 cells/well and treated with quinazoline compounds the next day. Triplicate wells were used for each treatment. The cells were. incubated with the various compounds for 96 hours at 37° C. in a humidified 5% CO2 atmosphere. After 96-hour incubation, cells were fixed with 10% trichloroacetic acid (“TCA”), incubated for 1 hour at 4° C., and washed 3 times with tap water. Subsequently cells were stained with 0.4% sulforhodamine B in 1% acetic acid for 30 minutes, washed 4 times with 1% acetic acid, and air-dried again. After 5 minutes agitation in 10 mM Tris solution, the absorbance of each well was measured at 530 nm using Benchmark Plus Microplate reader (Bio-Rad Laboratories, Hercules, Calif.).
(§4) To translate the OD530 values into the number of live cells in each well, the OD530 values were compared to those on standard OD530—versus—cell number curves generated for each cell line. The percent survival was calculated using the formula: % Survival=live cell number [test]/live cell number [control]×100
(§5) The IC50 values were calculated by non-linear regression analysis.

Another experiment relates to HepG2. Put plainly: Cell growth inhibition assay (SRB), HepG2. Type of experiment: cell-based, Human. Conditions: HepG2 (liver), 96 hours, read-out: Inhibition of cell growth (IC50, μM) HepG 2.
Description: as §1, §2, §3, §4, §5

In another experiment the test system is MKN-45. Put plainly: Cell growth inhibition assay (SRB), MKN-45. Type of experiment: cell-based, Human. Conditions: MKN-45 (stomach), 96 hours.
Description: as §1, §2, §3, §4, §5

In a further experiment the test system is PANC-1. Put plainly: Cell growth inhibition assay (SRB), PANC-1. It is filed as cell-based, Human. The following applies: PANC-1 (pancreas), 96 hours.
Description: as §1, §2, §3, §4, §5

A further experiment has as its system HT-29. Nature of the experiment: Cell growth inhibition assay (SRB), HT-29. Type of experiment: cell-based, Human. Conditions: HT-29 (colon), 96 hours.
Description: as §1, §2, §3, §4, §5

The test system of a further experiment is PC3. Put plainly: Cell growth inhibition assay (SRB), PC3. The following applies: PC3 (prostate), 96 hours. Type of experiment: cell-based, Human.
Description: as §1, §2, §3, §4, §5

In a further experiment the test system is U251. Put plainly: Cell growth inhibition assay (SRB), U251. Type of experiment: cell-based, Human. The following applies: U251 (brain), 96 hours.
Description: as §1, §2, §3, §4, §5

The next experiment relates to HeLa. Put plainly: Cell growth inhibition assay (SRB), HeLa. It is filed as cell-based, Human. Conditions: HeLa (cervix), 96 hours.
Description: as §1, §2, §3, §4, §5

The next experiment concerns Lox IMVI. Nature of the experiment: Cell growth inhibition assay (SRB), Lox IMVI. Conditions: Lox IMVI (melanoma), 96 hours. It is filed as cell-based, Human.
Description: as §1, §2, §3, §4, §5

The next experiment relates to OVCAR-3. Put plainly: Cell growth inhibition assay (SRB), OVCAR-3. Type of experiment: cell-based, Human. Conditions: OVCAR-3 (ovary), 96 hours.
Description: as §1, §2, §3, §4, §5

For the next experiment, the system named is MCF-7. Nature of the experiment: Cell growth inhibition assay (SRB), MCF-7. It is filed as cell-based, Human. Conditions: MCF-7 (breast, hormone-dependent), 96 hours.
Description: as §1, §2, §3, §4, §5

The subject of the next experiment is MDA-MB-231. Nature of the experiment: Cell growth inhibition assay (SRB), MDA-MB-231. Type of experiment: cell-based, Human. The following applies: MDA-MB-231 (breast), 96 hours.
Description: as §1, §2, §3, §4, §5

Another experiment deals with Hs 578T. Put plainly: Cell growth inhibition assay (SRB), Hs 578T. Type of experiment: cell-based, Human. The following applies: Hs 578T (breast), 96 hours.
Description: as §1, §2, §3, §4, §5

Another experiment deals with UMRC2. Nature of the experiment: Cell growth inhibition assay (SRB), UMRC2. It is filed as cell-based, Human. Conditions: UMRC2 (kidney), 96 hours.
Description: as §1, §2, §3, §4, §5

The subject of another experiment is Caki-1. Nature of the experiment: Cell growth inhibition assay (SRB), Caki-1. Type of experiment: cell-based, Human. The following applies: Caki-1 (kidney), 96 hours.
Description: as §1, §2, §3, §4, §5

Experiment [1] concerns 15 human tumor cell lines. Nature of the experiment: Cell growth inhibition assay (SRB), summary over the panel of cell lines. Type of experiment: cell-based. The following applies: four of the tested cell lines. The text has this: Cancer cells used in this study to determine the effect of quinazoline compounds were obtained from the following sources: Human OVCAR-3 (ovary), MCF-7 (breast, hormone-dependent), Hs 578T (breast), MDA-MB-231 (breast), HeLa (cervix), PC3 (prostate), HepG2 (liver), A549 (lung), Caki-1 (kidney), HT-29 (colon), HCT116 (colon) and PANC-1 (pancreas) from the American Type Culture Collection (ATCC) (Manassas, Va.); U251 (brain) from Riken (Japan); MKN-45 (stomach) from DSMZ (Germany); UMRC2 (kidney) and Lox IMVI (melanoma) from the United States National Cancer Institute (Bethesda, Md.). […]
The growth inhibition of the substituted quinazoline derivative compounds against a variety of human tumor cells was evaluated. […]
The growth inhibition assay of various compounds against 15 human tumor cell lines was performed using the Sulforhodamnine B (“SRB”) method (Skehan et al., J. National Cancer Institute, 82: 1107-1112 (1990)). […] After 5 minutes agitation in 10 mM Tris solution, the absorbance of each well was measured at 530 nm using Benchmark Plus Microplate reader (Bio-Rad Laboratories, Hercules, Calif.). […]
The IC50 values were calculated by non-linear regression analysis. […]

Usually IC50 stands for the concentration needed to halve the response being measured.

Take `CC(C)Nc1ncnc2cc3[nH]cnc3cc12` [RX-1834]: the IC50 is 0.66 µM in the experiment with A549; 0.18 µM in the experiment on HepG2; 0.1 µM with MKN-45; more than 3 µM in the experiment on PANC-1; 0.24 µM in the experiment with HT-29; 1.03 µM with PC3. For the same molecule, the IC50 amounted to 0.13 µM with U251; 1.06 µM with HeLa; 0.67 µM in the experiment with Lox IMVI; 0.48 µM in the experiment with OVCAR-3; 0.11 µM in the experiment with MCF-7; 0.53 µM with MDA-MB-231. The IC50 in the experiment with Hs 578T was 0.79 µM; in the experiment on UMRC2 it was 2.24 µM; in the experiment on Caki-1 it was 0.65 µM; in experiment [1], less than 200 nM.
